Measurements: patent publication US6887903B1, “N-(2-aryl-propionyl)-sulfonamides and pharmaceutical preparations containing them” (Dompe S.p.A., priority 1998, dated 2005)

Legend:
CO enzymes = conditions: ketoprofen enantiomers; cited from earlier work
[1] = tested on: human PMNs leukocytes stimulated by IL-8; experiment: Cytosol [Ca2+]i variations in human PMN stimulated by IL-8 (Fura-2AM); assay type: cell-based; conditions: for [Ca2+]i response, % compared with basal values (basal normalized at 100): compound 10^−6 M + IL-8 50 ng/mL, mean of responsive cells with SEM, PMN from 3 donors; for percentage of non-responsive cells: pretreated with compound 10^−6 M, IL-8 50 ng/mL (30% with only IL-8)
Experimental: (§1) The compounds of the invention were studied using PMN cells obtained by sedimentation of heparinized blood from healthy volunteers on dextran; the mononuclear cells were removed by means of Ficoll/Hypaque whereas erythrocytes were removed by treatment with hypotonic solutions. Cell viability of PMN leukocytes was calculated by exclusion with Turk and Trypan Blue, while the percentage of PM-nucleates on the cytocentrifugate was evaluated upon staining with Diff Quinck (W. J. Ming et al., J. Immunol., 138, 1469, 1987).
(§2) In each of the “in vitro” tests subsequently described, PMN were incubated with the compounds of the invention for 10 minutes at a temperature of 37° C.
(§3) In the chemotaxis tests and in those for evaluating cytosol levels of the Ca^2+ ion, human recombinant IL-8 (Pepro Tech.) was used as stimulating agent: the freeze-dried protein was dissolved in HBSS (Hank's balanced salts solution) at a concentration of 100 ng/mL and was used after dilution in HBSS to concentrations of 10 ng/mL in the chemotaxis tests and of 25-50 ng/mL in the evaluation of [Ca^2+]i cell modifications.
Cytosol variations of [Ca^2+]i were determined according to the experimental model described by C. Bizzarri et al., (Blood, 86, 2388, 1995), using slides containing adhered PMN added with 1 μM Fura-2AM to evaluate [Ca^2+]i variations in actual time. In their turn, PMN cytocentrifugates were resuspended in RPMI 1640 medium with 5% FCS (bovine foetal serum) at a concentration of 3×10^6/mL and then inoculated (plated) on round glass slides of 25 mm diameter which were placed in incubator for 30 min. at 37° C. After three subsequent washings with BSS (Balanced salts solution) to remove the non adherent cells, all of the adherent cells were further incubated for a maximum of 4 hours before adding Fura-2AM.
By way of example, results obtained with R(−)-N-2-[3-(benzoylphenyl)-propionyl])-methanesulfonamide (DF 1661) and R(−)-N-2-[(4-Isobutylphenyl)-propionyl]-methanesulfonamide (DF 1681) using human PMNs leukocytes from 3 different donors are reported in the subsequent table. These leukocytes were considered responsive to IL-8 (50 ng/mL) when [Ca^2+]i was higher than the basal value by 34% (normalized at 100) in response to the stimulus.
The responses, expressed as % compared with [Ca^2+]i basal values, are the mean of the values of the responsive cells and include standard error (SEM); n is the number of replications. During these tests, the percentage of non-responsive cells was different in the different groups: 30% in the group treated with only IL-8, 40% in the group pretreated with DF 1661 and 70% in the group pretreated with DF 1681.

[2] = tested on: PMN human leukocytes stimulated by interleukin 8; experiment: Chemotaxis of human PMN induced by IL-8; assay type: cell-based; conditions: IL-8 10 ng/mL; concentration range from 10^−6 to 10^−11 M; mean ±S.D. of 3 independent tests
Experimental: as §1, §2, §3
In the chemotaxis test (according to W. Falket et al., J. Immunol. Methods, 33, 239, 1980) PVP filters of […] porosity and a plexigas microcamera suitable to perform 48 replications were used. […]

[3] = tested on: PMN human leukocytes stimulated by C5a; experiment: Chemotaxis of human PMN induced by C5a; assay type: cell-based; conditions: C5a 10^−9 M; DF 1681 from 10^−6 to 10^−7 M
Experimental: as §1, §2
(§4) In the chemotaxis test (according to W. Falket et al., J. Immunol. Methods, 33, 239, 1980) PVP filters of […] porosity and a plexigas microcamera suitable to perform 48 replications were used. The microcamera consists of a plexiglas piece containing 48 wells, each of 25 μL capacity, and is equipped with a cover, in its turn containing 48 pores arranged so that, once the lid has been placed on and screwed to the underneath part, 50 μL capacity top compartments are formed in the microcamera.
(§5) Equal concentrations of the tested compounds were placed in the top wells containing the PMN suspension and in the lower ones, which contained the carrier optionally added with IL-8 (or a different stimulating agent).

[4] = tested on: PMN human leukocytes stimulated by f-MLP; experiment: Chemotaxis of human PMN induced by f-MLP; assay type: cell-based; conditions: f-MLP 10^−8 M; DF 1681 from 10^−6 to 10^−7 M
Experimental: as §1, §2, §4, §5

[5] = tested on: human neutrophils stimulated by IL-8; conditions: IL-8 1 nM; read-out: IC50 of blockage of chemotaxis stimulated by IL-8; cited from earlier work
[6] = tested on: human neutrophils stimulated by GROα; conditions: GROα 10 nM; read-out: IC50 of blockage of chemotaxis stimulated by GROα; cited from earlier work
[7] = tested on: human neutrophils stimulated by complement C5a; conditions: concentration range of 50 to 330 nM; cited from earlier work

**Q.** With `C[C@@H](C(=O)O)c1cccc(C(=O)c2ccccc2)c1` (single isomer, unassigned) [enantiomer (R)] as the molecule, how does the “lower potency of enantiomer (R) compared with enantiomer (S) as CO enzymes inhibitor” value (CO enzymes) read?
**A.** 10-100 times

**Q.** Which “[Ca2+]i response, % compared with basal values (basal normalized at 100)” value [1] does the source give for `C[C@@H](C(=O)NS(C)(=O)=O)c1cccc(C(=O)c2ccccc2)c1` [DF 1661] here?
**A.** 184 + 16 (n = 10) %

**Q.** What about the “percentage of non-responsive cells” value [1] of the same molecule?
**A.** 40%

**Q.** Which results are given for `CC(C)Cc1ccc([C@@H](C)C(=O)NS(C)(=O)=O)cc1` [DF 1681, R(−)-N-[2-(4-Isobutylphenyl)propionyl]-methanesulfonamide]?
**A.** inhibition of chemotaxis induced by IL-8 (number of migrated PMN, FIG. 1) [2]: dose-dependently inhibits chemotaxis induced by IL-8; inhibition of chemotaxis induced by C5a (FIG. 2) [3]: selectivity inhibit IL-8-induced chemotaxis instead of chemotaxis induced by C5a; inhibition of chemotaxis induced by f-MLP (FIG. 2) [4]: selectivity inhibit IL-8-induced chemotaxis instead of chemotaxis induced by C5a (10^−9 M) or by f-MLP; [Ca2+]i response, % compared with basal values (basal normalized at 100) [1]: 159 + 16 (n = 10) %; percentage of non-responsive cells [1]: 70%

**Q.** Which results are given for `O=C(Nc1ccc([N+](=O)[O-])cc1O)Nc1ccccc1Br` [N-(2-hydroxy-4-nitrophenyl)-N′-(2-bromo-phenyl)urea]?
**A.** IC50 [5]: 20 to 60 nM; IC50 [6]: 20 to 60 nM; blockage of C5a-stimulated chemotaxis [7]: but not that of complement C5a-stimulated chemotaxis
